Measurements from patent US20260061080A1, “FLUORESCENT COMPOUND BASED ON NEW INDOCYANINE GREEN IR820, AND PREPARATION AND USE THEREOF” (Shanghai Fluoresoma Medical Technology Co., Ltd., priority 2023, published 2026).

Columns and labels:
[1] = test system: tumor sites of tumor-bearing mice; assay: Fluorescence imaging of IR820-cRGD in living tumor-bearing mice; type: in vivo; conditions: tail vein injection, solution in pure water at 10 μM (or equal equivalent probe concentration), observed 2 hours later; FIG. 5
Experimental: Three tumor-bearing mice were administered with an IR820-cRGD solution in pure water at a concentration of 10 μM, a […] solution in pure water at an equal equivalent probe concentration, and an IR820 solution in pure water at an equal equivalent probe concentration through tail vein injection, respectively. 2 hours later, tumor sites of the mice were observed using an in vivo imaging instrument for small animals to obtain imaging situations.

[2] = test system: breast cancer cells (MCF-7), cervical cancer cells (Hela), normal cells (CHO); conditions: 10 μL of 1 mM DMSO mother solution of probe in 2 mL culture dish; CHO vs MCF-7 and Hela; FIG. 4
Experimental: An instrument model used for cell imaging is a Leica TCS SP5 II confocal laser scanning microscope using a HC×PLAPO 63×oil objective (NA: 1.40).
The experiment was carried out in three groups, with one group using normal cells (CHO), one group using breast cancer cells (MCF-7), and one group using cervical cancer cells (Hela). Before an imaging test, a cultured cell culture solution was first sucked away, and the cells were washed once with a PBS buffer solution, and then washed once with DMEM or 1640. 10 μL of a formulated DMSO mother solution with a probe concentration of 1 mM was measured and added into a 2 mL culture dish containing a fresh DMEM or 1640 culture medium. After culture was completed, the excessive culture solution was first removed, the cells were washed with a PBS buffer solution (pH 7.4) to remove an excessive probe, and then the imaging test was carried out on the cells separately using a confocal fluorescence microscope.

Compound | fluorescence signal at the tumor site [1] | fluorescence signal in cells (selectivity for tumor cells) [2]
CC1(C)C(/C=C/C2=C(Oc3ccc(CCC(=O)NCCCC[C@@H]4NC(=O)[C@@H](Cc5ccccc5)NC(=O)[C@H](CC(=O)O)NC(=O)CNC(=O)[C@H](CCCNC(=N)N)NC4=O)cc3)C(=C/C=C3/N(CCCCS(=O)(=O)O)c4ccc5ccccc5c4C3(C)C)/CCC2)=[N+](CCCCS(=O)(=O)O)c2ccc3ccccc3c21 [IR820-cRGD] | highly bright fluorescence signal | greater selective fluorescence signals for the tumor cells
CC1(C)C(/C=C/C2=C(Cl)C(=C/C=C3/N(CCCCS(=O)(=O)[O-])c4ccc5ccccc5c4C3(C)C)/CCC2)=[N+](CCCCS(=O)(=O)O)c2ccc3ccccc3c21 [IR820] | weak fluorescence signal | 
